Our source for the kOH values is ChEMBL document CHEMBL1135486, “Acylating agents as enzyme inhibitors and understanding their reactivity for drug design” (J Med Chem, 2002).

Each structure is given as a SMILES string.

This data set can be described thus: Second-order rate constant (M-1 s-1) for the alkaline hydrolysis in water at 30 degrees C. As to conditions: buffer.
Regarding `CC(C)[C@@H]1C(=O)N(S(C)(=O)=O)[C@@H]2CCN(C(=O)c3coc(CN4CCCC4)n3)[C@H]21`, the kOH turned out to be 0.08 M⁻¹ s⁻¹. Next, `CC(C)[C@@H]1C(=O)N(S(C)(=O)=O)[C@@H]2CCN(C(=O)C3CN(CC(C)(C)C)C3)[C@H]21`: 0.0601 M⁻¹ s⁻¹; `C=CC[C@H]1C(=O)OC2CCN(C(=O)OCc3ccccc3)[C@@H]21` (some centres undefined): 0.252 M⁻¹ s⁻¹. Consider `CC(C)[C@@H]1C(=O)N(S(C)(=O)=O)[C@@H]2CCN(C(=O)/C=C/CN3CCCCC3)[C@H]21`, for which the kOH amounted to 0.07 M⁻¹ s⁻¹. In turn, `CN1C(=O)CCC1=O` showed a kOH of 0.825 M⁻¹ s⁻¹. In turn, `CCC[C@H](NC(=O)N1C(=O)C(CC)(CC)C1Oc1ccc(C(=O)N2CCN(C)CC2)cc1)c1ccc2c(c1)OCO2` (some centres undefined) had a kOH of 0.027 M⁻¹ s⁻¹. `O=C1c2ccccc2S(=O)(=O)N1Cc1ccccc1` returned a kOH of 4.06 M⁻¹ s⁻¹. Regarding `CC(=O)N(C)C(C)=O`, the kOH was determined as 1.54 M⁻¹ s⁻¹. Next, `CC(=O)N(C)S(=O)(=O)Cc1ccccc1`: 1.3 M⁻¹ s⁻¹. Compound `O=C1CCCN1c1ccccc1` had a kOH of 0.000013 M⁻¹ s⁻¹. Compound `O=C1CCCN1` [2-PYRROLIDONE] yielded a kOH of 1.2 M⁻¹ s⁻¹. Next, `O=C1CCCO1` [BUTYROLACTONE]: 1.31 M⁻¹ s⁻¹; `CCOC(C)=O` [ETHYL ACETATE]: 0.164 M⁻¹ s⁻¹.

`CN1CCCC1=O` [METHYLPYRROLIDONE]: the kOH was 3.07 M⁻¹ s⁻¹.
